System: Elastase
Assay: Elastase-inhibiting effect of sterol derivatives
Type: biochemical
Description: The elastase-inhibiting effect of various sterol derivatives was investigated in the concentration range from 2.5 to 1000 ppm.

Compound: Phytosterol phosphate [Example C3]
- Elastase-inhibiting effect (2.5 ppm inhibitor): 0 %-rel
- Elastase-inhibiting effect (5 ppm inhibitor): 0 %-rel
- Elastase-inhibiting effect (12.5 ppm inhibitor): 0 %-rel
- Elastase-inhibiting effect (500 ppm inhibitor): 0 %-rel
- Elastase-inhibiting effect (1000 ppm inhibitor): 30 %-rel

Compound: Phytosterol succinate [Example C2]
- Elastase-inhibiting effect (2.5 ppm inhibitor): 0 %-rel
- Elastase-inhibiting effect (5 ppm inhibitor): 0 %-rel
- Elastase-inhibiting effect (12.5 ppm inhibitor): 0 %-rel
- Elastase-inhibiting effect (500 ppm inhibitor): 0 %-rel
- Elastase-inhibiting effect (1000 ppm inhibitor): 0 %-rel

Compound: CC(C)CCC[C@@H](C)[C@H]1CC[C@H]2[C@@H]3CC=C4C[C@@H](OS(=O)(=O)[O-])CC[C@]4(C)[C@H]3CC[C@]12C.[Na+] [Example 1, Cholesterol sulfate, sodium salt]
- Elastase-inhibiting effect (2.5 ppm inhibitor): 49 %-rel
- Elastase-inhibiting effect (5 ppm inhibitor): 92 %-rel
- Elastase-inhibiting effect (12.5 ppm inhibitor): 100 %-rel

Compound: Phytosterol sulfate, sodium salt [Example 2]
- Elastase-inhibiting effect (2.5 ppm inhibitor): 31 %-rel
- Elastase-inhibiting effect (5 ppm inhibitor): 64 %-rel
- Elastase-inhibiting effect (12.5 ppm inhibitor): 98 %-rel

Compound: CC(=O)O[C@H]1CC[C@@]2(C)C(=CC[C@H]3[C@@H]4CC[C@H]([C@H](C)CCCC(C)C)[C@@]4(C)CC[C@@H]32)C1 [Example C1, Cholesterol acetate]
- Elastase-inhibiting effect (2.5 ppm inhibitor): 0 %-rel
- Elastase-inhibiting effect (5 ppm inhibitor): 0 %-rel
- Elastase-inhibiting effect (12.5 ppm inhibitor): 0 %-rel
- Elastase-inhibiting effect (500 ppm inhibitor): 33 %-rel
- Elastase-inhibiting effect (1000 ppm inhibitor): 59 %-rel

— patent publication US6589945B1, “Use of sterolsulfates as active substances for producing means to inhibit serin proteases” (Cognis Deutschland GmbH & Co. KG, priority 1996, dated 2003)
